Results: US11472787B2, “Docosahexaenoic acid endocannabinoid epoxide derivative compositions” (The Board of Trustees of the University of Illinois, priority 2017, dated 2022)
pEC50: −log10 of the molar value.

Tests used:
[1] = test system: MG63 cells; assay: Scratch (wound migration) assay in MG63 cells; format: cell-based; details: MG63 cell line
Protocol: (§1) A scratch assay was performed to analyze the anti-migratory properties of the three derivatives (FIGS. 3A-3C and 7). Cells were grown and maintained in Dulbecco's modified Eagle's medium supplemented with 10% fetal bovine serum, 1% streptomycin and penicillin at 37° C. in a 5% CO2 humidified air atmosphere in a 12 well plate to a confluent monolayer and then a scratch was made across the center and images were taken. The media was changed and appropriate compounds and controls were added and images of the scratch were taken every 2 hours. The images were processed by ImageJ software. In HOS cells (FIG. 3A), all 10,11-EDP derivatives restricted wound migration at 5 μM concentration.

[2] = test system: 143B cells; assay: Annexin V binding apoptosis assay in 143B cells; format: cell-based; details: 12.5 μM, 24 hours
Protocol: (§2) All three amino-modified derivatives of 10,11-EDP were tested for their apoptotic activity using a BD biosciences Annexin V binding assay for apoptosis at 12.5 μM concentration (FIG. 2). Cells were grown and maintained in Dulbecco's modified Eagle's medium supplemented with 10% fetal bovine serum, 1% streptomycin and penicillin at 37° C. in a 5% CO2 humidified air atmosphere in 12 well plate to 90% confluency and then appropriate amount of compound or control was added to the well. The cells were incubated for 24 hours and then prepared for apoptosis assays as indicated in BD biosciences Annexin V binding assay kit instructions and analyzed by BD Accuri C6 flow cytometer and FCS flow software. […] However, their effects were not consistent in trend among the three cell lines. The cyclopropyl analog seemed to have the highest pro-apoptotic potential among the three within error limits. […] In 143B cells the increase in pro-apoptotic potential was only 18.8±0.3% for the iso-propyl derivative as compared to 25.7±0.4% for the n-propyl derivative.

[3] = test system: 143B cells; assay: Scratch (wound migration) assay in 143B cells; format: cell-based
Protocol: as §1

[4] = target: CNR1 (CB1) (Homo sapiens (Human), UniProt P21554); assay: Presto-Tango β-arrestin recruitment assay, CNR1; format: cell-based; details: HTLA cells
Protocol: (§3) Binding of the parent compounds to putative receptors CNR1 and CNR2 (cannabinoid receptors 1& 2) was measured by a Presto-Tango assay (FIG. 5A and FIG. 5B). […] HTLA were received from the Roth Lab and CNR1 and CNR2 plasmids were purchased from Addgene. HTLA cells were maintained in DMEM with 10% FBS containing 2 μg/mL of puromycin and 100 μg/mL of hygromycin B at 37° C. in a 5% CO2 humidified air atmosphere and grown to 80-90% confluency. Cells were then seeded at 20,000 cells per 100 uL into poly-L-lysine coated 96-well plate. After 18-24 hrs, cells were transfected with CNR2 (0.1 ug/well) using Calfectin as the transfection reagent. Transfection media was replaced after 12-18 hours with serum-media and proceeded for ˜36 hours. On the day of the assay, serum-media was replaced with serum-free media for 4 hours, then the compounds were added in a log dose manner in DMSO to a final well volume of 200 uL and incubated overnight. The next day, media was removed and 20 μL of Bright-Glo solution was added to the cells and incubated for 20 min at room temperature in the dark and measured for luminescence. Relative luminescence units (RLU) values were normalized to % receptor response, plotted as a function of compound concentration and analyzed using “DoseResp” in OriginPro.

[5] = target: CNR2 (CB2) (Homo sapiens (Human), UniProt P34972); assay: Presto-Tango β-arrestin recruitment assay, CNR2; format: cell-based; details: HTLA cells
Protocol: as §3

[6] = test system: HOS cells; assay: Annexin V binding apoptosis assay in HOS cells; format: cell-based; details: 12.5 μM, 24 hours
Protocol: as §2

[7] = test system: HOS cells; assay: Scratch (wound migration) assay in HOS cells; format: cell-based; details: 5 μM; for restriction of wound migration as compared to control: over 10 hours
Protocol: as §1

[8] = target: Fatty acid amide hydrolase (FAAH) (Sus scrofa (Pig), UniProt Q9TUI8); assay: Susceptibility to FAAH hydrolysis in pig brain membrane preparations; details: pig forebrain membranes, amide at 20 μM, 40 min
Chain of Fatty acid amide hydrolase (FAAH) (Q9TUI8 whole entry): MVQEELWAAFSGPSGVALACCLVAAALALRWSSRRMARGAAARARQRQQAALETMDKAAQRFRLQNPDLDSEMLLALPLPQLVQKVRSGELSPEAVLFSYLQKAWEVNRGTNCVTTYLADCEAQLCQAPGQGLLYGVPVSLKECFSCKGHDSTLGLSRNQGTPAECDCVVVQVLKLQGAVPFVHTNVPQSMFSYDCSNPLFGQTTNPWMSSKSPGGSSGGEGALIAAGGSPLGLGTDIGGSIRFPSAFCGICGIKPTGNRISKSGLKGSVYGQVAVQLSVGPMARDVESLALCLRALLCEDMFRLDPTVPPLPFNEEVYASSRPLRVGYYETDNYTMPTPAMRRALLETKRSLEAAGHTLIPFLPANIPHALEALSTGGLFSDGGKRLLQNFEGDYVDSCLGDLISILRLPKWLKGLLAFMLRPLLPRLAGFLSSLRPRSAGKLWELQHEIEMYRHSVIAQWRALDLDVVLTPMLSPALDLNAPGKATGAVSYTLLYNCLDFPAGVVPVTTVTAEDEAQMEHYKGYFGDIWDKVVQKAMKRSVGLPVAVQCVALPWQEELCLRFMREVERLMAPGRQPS
Protocol: Fatty acid amide hydrolase (FAAH) is a ubiquitously expressed protein in various mammals and the sequence of the protein has shown to be highly conserved in humans, mouse and pig. […] The preparation of pig forebrain membranes was achieved using dounce homogenization in buffer (50 mM Tris pH 7.4, 1 mM EDTA and 3 mM MgCl2) and membrane pelleting as previously described (Hillard, C. J.; Wilkison, D. M.; Edgemond, W. S.; Campbell, W. B. Characterization of the kinetics and distribution of N-arachidonylethanolamine (anandamide) hydrolysis by rat brain. Biochim Biophys Acta 1995, 1257, 249-56). Incubations contained 5 μg forebrain protein in a 0.5 mL reaction containing 50 mM Tris (pH 7.4), 1 mM EDTA, 3 mM MgCl2, and amide at 20 μM. At 40 min reactions were quenched with methanol containing 1 mM PMSF and centrifuged to pellet protein (10,000 g×10 min). The supernatant was collected and analyzed via LC-MS/MS as outlined below.
The products of hydrolysis were measured by LC-MS/MS as indicated in materials and methods section.

[9] = test system: MG63 cells; assay: Annexin V binding apoptosis assay in MG63 cells; format: cell-based; details: 12.5 μM, 24 hours
Protocol: as §2

[10] = test system: HUVEC cells; assay: Endothelial tube formation (angiogenesis) assay on matrigel; format: cell-based; details: 0.5 μM or 1 μM compound, 5 hours
From the text: Increased angiogenesis is one of the hallmarks of cancer. The development of neo-vascularization is key for the adequate supply of nutrients and oxygen to the site of metastasis. Endothelial tube formation on matrix has been established as a cellular model for angiogenesis. Endothelial HUVEC cells form a networks of tubes when plated on matrigel and the tube formation in presence and absence of treatment can be quantified as a measure of restricted angiogenic potential.
Angiogenesis in endothelial HUVEC cells was measured using abcam angiogenesis kit (ab204726). Briefly, HUVEC cells at passage 2 (p=2) were grown to 80% confluency. The matrigel provided was thawed overnight and 50 μL was put into each well of a 96 well plate that had been chilled overnight in a −20° C. freezer. The plate was rocked slightly and then allowed to incubate at 37° C. for 1 hour. 15,000 HUVEC cells were then plated into the wells and were treated with vehicle control or 0.5 μM or 1 μM compound. A no matrix control and a control with vinblastine (inhibitor of angiogenesis) was also performed. All wells were performed in duplicates. The plates were then incubated for 5 hours at 37° C. […] The wells were imaged using a fluorescent microscope and analyzed using ImageJ with Angiogenesis Analyzer Plugin. […] The tube formation was assessed by Image J analysis.

[11] = test system: BV-2 microglial cells; assay: Anti-inflammatory assay in LPS-stimulated microglial cells; format: cell-based, mouse; details: BV-2 cells, 4 hours pre-incubation, 25 ng/mL LPS
Protocol: The anti-inflammatory effect of parent compounds was tested by measuring nitrite production in Bv2 microglial cells and the reduction in pro-inflammatory cytokine IL-6 (FIG. 4). Experiments were performed with mouse BV-2 microglial cells. Cells were grown and maintained in Dulbecco's modified Eagle's medium supplemented with 10% fetal bovine serum, 1% streptomycin and penicillin at 37° C. in a 5% CO2 humidified air atmosphere. BV-2 cells were seeded in 24-well plates (200K cells/mL) and grown to 80-90% confluency. For regioisomer screening and dose response studies, media was replaced with serum-free media and the cells were pre-incubated with the regioisomers for 4 hours prior to stimulation with 25 ng/mL LPS (Sigma-Aldrich, USA). Production of nitric oxide (NO) and cell toxicity and IL-6 production were measured.

SMILES | restriction in wound healing as compared to the control [1] | apoptosis (apoptotic potential) [2] [%] | restriction in wound migration as compared to the control [3] | pEC50 [4] | pEC50 [5] | apoptosis (apoptotic potential) [6] [%] | inhibition of migration more than vehicle control ([7]; 8 and 10 hour time points) | restriction of wound migration as compared to control [7] | rate of hydrolysis [8] [pmol min^−1 mg protein^−1] | apoptosis (apoptotic potential) [9] [%] | tube formation (angiogenesis) [10] | IL-6 production [11] | nitrite production [11]
CC/C=C\C/C=C\C/C=C\CC1OC1C/C=C\C/C=C\CCC(=O)NC1CC1 (stereo not shown) [10,11-EDP-CA, (4Z,7Z)—N-Cyclopropyl-9-(3-((2Z,5Z,8Z)-undeca-2,5,8-trien-1-yl)oxiran-2-yl)nona-4,7-dienamide] | comparable to 10, 1-EDP-EA | 21.3±1.9 | most potent | 10.52 | 9.34 | 27.19±4.05 | 4.5-6 times | most potent | 5.17±0.06 | 17.09±4.4 |  |  | 
CC/C=C\C/C=C\C/C=C\CC1OC1C/C=C\C/C=C\CCC(=O)NCCO (stereo not shown) [10,11-EDP-EA, reference compound] | 1-2 times |  | 1-1.9 times | 9.37 | 7.65 |  |  | 1.00-1.44 times | 30.0±0.3 |  | Prevent Angiogenesis |  | 
CC/C=C\C/C=C\C/C=C\CC1OC1C/C=C\C/C=C\CCC(=O)NC(C)CO (stereo not shown) [10,11-EDP-IA, (4Z,7Z)—N-(1-Hydroxypropan-2-yl)-9-(3-((2Z,5Z,8Z)-undeca-2,5,8-trien-1-yl)oxiran-2-yl)nona-4,7-dienamide] | slightly poorer than the control | 18.8±0.3 | 1-3.9 times | 10.15 | 10.10 | 20.15±1.75 |  | 1-1.75 times | 0.99±0.04 | 17.48±2.8 |  |  | 
CC/C=C\C/C=C\C/C=C\CC1OC1C/C=C\C/C=C\CCC(=O)NCCCO (stereo not shown) [10,11-EDP-NA, (4Z,7Z)—N-(3-Hydroxypropyl)-9-(3-((2Z,5Z,8Z)-undeca-2,5,8-trien-1-yl)oxiran-2-yl)nona-4,7-dienamide] | slightly poorer than the control | 25.7±0.4 | 1-1.47 times | 9.72 | 8.14 | 17.05±1.4 |  | 1-1.7 times |  | 15.15±3.28 |  |  | 
CCC1OC1C/C=C\C/C=C\C/C=C\C/C=C\C/C=C\CCC(=O)NCCO (stereo not shown) [19,20-EDP-EA] |  |  |  |  |  |  |  |  | 150 |  |  | reduction in 11-6 and nitrite in a dose dependent manner | reduction in 11-6 and nitrite in a dose dependent manner
